pEC50: −log10 of the molar value. Read-outs that look alike come from different tables or passages of the source.

In series [1] the target is T1, hPPARγ (Homo sapiens, UniProt P37231).
T1 sequence (P37231 238-505): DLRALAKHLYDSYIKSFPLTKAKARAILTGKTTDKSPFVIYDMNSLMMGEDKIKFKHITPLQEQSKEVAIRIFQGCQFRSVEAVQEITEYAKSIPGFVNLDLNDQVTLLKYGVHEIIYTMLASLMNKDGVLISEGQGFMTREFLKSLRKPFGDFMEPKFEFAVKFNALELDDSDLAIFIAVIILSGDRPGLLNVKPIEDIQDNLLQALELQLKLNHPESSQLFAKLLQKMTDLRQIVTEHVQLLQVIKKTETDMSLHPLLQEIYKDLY
Kind of series: PPAR/Gal4 chimera luciferase reporter transactivation assay in transiently transfected Cos-7 cells (hPPARγ). The format is cell-based. As to conditions: for Emax: COS-7, read-out: hPPARγ Efficacy (%); for hPPARγ Efficacy (%): maximum activity as percentage of the maximum activity of rosiglitazone. Here is the method: (§1) The cells were maintained under standard culture conditions (Dulbecco modified minimum essential Eagle medium, DMEM) supplemented with 10% fetal calf serum (FCS) at 37°C in 5% […] CO2 atmosphere. The medium was changed every 2 days. The Cos-7 cells were seeded in 60 mm discs at a density of 5.5 × 10^5 cells/disc in DMEM supplemented with 10% FCS and incubated at 37°C for 16 h before transfection. The cells were transfected in DMEM using jetPEI, with reporter (pG5-TK-pGL3) and expression (pGal4-h, hPPARα or hPPARγ) plasmids. The expression plasmid pCMV-β-galactosidase was cotransfected as a control for transfection efficacy. After 16 h the transfection was stopped adding DMEM supplemented with 10% FCS, and the cells were trypsinised and seeded in 96-well plates and incubated for 6 h in DMEM containing 10% FCS. Subsequently, the cells were incubated for 24 h in DMEM containing 0.2% FCS and increasing concentrations of the compounds or the vehicle (DMSO, maximum concentration 0.1%) were tested. Finally, the cells were washed once with PBS cooled on ice, lysed and the luciferase and β-galactosidase assays were performed.
(§2) To evaluate the compounds for PPAR transcriptional activity, the tests were conducted in a PPAR/Gal4 chimera of a human luciferase reporter gene to determine the maximum transactivation response of each compound.

The target of series [2] is T2, hPPARα (Homo sapiens, UniProt Q07869).
T2 sequence (Q07869 167-468): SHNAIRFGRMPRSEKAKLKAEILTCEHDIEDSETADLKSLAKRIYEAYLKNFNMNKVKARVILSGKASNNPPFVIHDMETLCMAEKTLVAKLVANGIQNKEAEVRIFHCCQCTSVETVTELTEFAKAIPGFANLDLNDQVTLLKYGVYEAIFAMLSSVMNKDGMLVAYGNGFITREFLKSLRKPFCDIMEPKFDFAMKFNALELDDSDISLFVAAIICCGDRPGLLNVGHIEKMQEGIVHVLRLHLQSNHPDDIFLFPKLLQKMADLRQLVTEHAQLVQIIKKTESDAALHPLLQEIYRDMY
The experiment in a line: PPAR/Gal4 chimera luciferase reporter transactivation assay in transiently transfected Cos-7 cells (hPPARα). The format is cell-based. As to conditions: for Emax: COS-7, read-out: hPPARα Efficacy (%); for hPPARα Efficacy (%): maximum activity as percentage of the maximum activity of WY-14643; for pEC50: Cos-7 cells, 24 h, tested 0.001 to 10 µM, read-out: hPPARα EC50. Here is the method: as §1, §2

Series [3] has as its system HUVEC. The experiment in a line: Annexin V / propidium iodide flow cytometry of apoptosis and survival, HUVEC. The format is cell-based, human. As to conditions: 24 h; for apoptosis and survival: 30 µM; for reduced cell survival: 100 µM. Here is the method:
(§3) In addition, the apoptosis and survival rate for human neutrophils and HUVEC was determined by double staining with annexin V and propidium iodide (PI) by flow cytometry.
(§4) Cytofluorometric analysis of apoptosis and survival. The kit FITC Annexin V Apoptosis Detection kit (BD Bioscience, San Jose, CA) was used. The staining protocol and all the reagents were supplied with the commercial kit. HUVEC were separated from the culture flasks by accutase (StemPro® Accutase® Cell dissociation reagent, Thermofischer Scientific Waltham, MA). Both cell types were incubated at 37°C for 24h in the presence or absence of the test compounds. Confluent HUVEC and freshly isolated neutrophils were washed, resuspended in binding buffer 1x (1 × 10^6 cells/mL) and stained with annexin V conjugated with FITC and propidium iodide (PI) as described in the manufacturer's instructions. The cells were analyzed in a BD FACSVerse Flow Cytometer (BD Biosciences, San Jose, CA) and differentiated as early apoptosis cells (annexin V^+ and PI^-), late apoptosis cells and/or necrotic cells (annexin V^+ and PI^+), and live cells (annexin V^- and PI^-).

In series [4] the test system is human umbilical vein endothelial cells (HUVEC). The experiment in a line: MTT colorimetric cell viability assay, HUVEC. The format is cell-based. As to conditions: 30 µM, 24 h. Here is the method: (§5) To evaluate potential adverse effects (cytotoxicity) of the compounds of the invention, the compounds 1 and 2 for use according to the present invention, compound 8 of the invention, and the reference compounds were evaluated at concentrations of 30 and 100 µM in human neutrophils (Fig. 1A) and primary cultures of human umbilical vein endothelial cells (HUVEC) (Fig. 1B) using two different techniques: MTT colorimetry assay and flow cytometry analysis for cellular apoptosis and survival. In addition, the synthetic compound 9 of the invention was evaluated at 10, 30 and 100 µM (Fig. 2).
(§6) MTT assay. The viability of neutrophils and HUVEC was determined by the MTT colorimetric assay MTT (3(4,5-dimethylthiazol-2-yl)-2,5-diphenyltetrazoyl bromide).
Human umbilical vein endothelial cells (HUVEC) were isolated with the collagenase treatment and maintained in a human specific endothelial base medium (EBM-2) supplemented with endothelial growth medium (EGM-2) and 10% FCS. Cells of the first passage were cultured until their confluence in 24-well plates. Before starting each experiment, the cells were incubated for 24 h in a medium containing 1% FBS.
(§7) 100 µL of neutrophils and HUVEC (2 × 10^5 cells/mL) suspension in supplemented RPMI medium were added to each well of a 96-well plate. The cells were incubated in absence and/or presence of the compounds at 37°C for24h. An MTT solution was prepared (2 mg/mL in PBS). 100 µL of the MTT solution were added to each well and incubated at 37°C for an additional 3 h. The supernatants were discarded and 200 µL of DMSO were added to each well to dissolve the precipitated formazan. The optical densities at two wavelengths (560 and 630 nm) were measured in a spectrophotometer (Infinite M200, Tecan, Mannedorf, Switzerland).

In series [5] the test system is human neutrophils. Kind of series: Annexin V / propidium iodide flow cytometry of apoptosis and survival, neutrophils. The format is cell-based. As to conditions: 100 µM, 24 h, compared to the vehicle. How it is done:
as §3, §4

Series [6] concerns human neutrophils. The experiment in a line: MTT colorimetric cell viability assay, neutrophils. The format is cell-based. The following applies: 30 µM, 24 h. How it is done:
as §5, §6
Neutrophils were obtained from the leukocyte-platelet fraction (buffy coats) of healthy donors by centrifuging with Ficoll-Hypaque density gradient.
as §7

Series [7] is described as follows: Treatment of ob/ob mice: plasma metabolites (cholesterol, HDL-c, triglycerides, free fatty acids, ALT, AST). The format is in vivo. As to conditions: oral, 4 days. Here is the method: […]. […] […].
Free fatty acids (FFA) in plasma, and the enzymes aspartate aminotransferase (AST) and alanine aminotransferase (ALT) were determined with a colorimetric assay kit (Sigma-Aldrich, Madrid, Spain). In addition the plasma lipid levels for total cholesterol and triglycerides (TG) were measured by enzymatic methods (WAKO, Cape Charles, VA). The concentration of HDLcholesterol (HDL-c) was also determined with the same method used to measure total cholesterol, after precipitating the apolipoprotein-B (apoB) with dextran sulphate/MgCl2 (Sigma-Aldrich, Madrid, Spain) as previously described (Zieske et al., 2005).

The mark [8] stands for this setting: Cos-7 cells, 24 h, tested 0.001 to 10 µM, read-out: hPPARγ EC50.

For `CCCOC(=O)/C(C)=C/CC/C(C)=C/CCC1(C)CCc2cc(O)cc(C)c2O1` (stereo not shown) [Compound 3], the Emax in series [1] came to 86%; in series [2], 100%.
Take `C/C(=C\CCC1(C)CCc2cc(OCC(N)=O)cc(C)c2O1)CC/C=C(\C)C(=O)OCc1ccccc1` (stereo not shown) [Compound 4a]: the Emax amounted to 0% in series [1] and 18% in series [2].
Consider `C/C(=C\CCC1(C)CCc2cc(OCc3ccccc3)cc(C)c2O1)CC/C=C(\C)C(=O)OCc1ccccc1` (stereo not shown) [Compound 4b], for which the Emax was 0% in series [1] and 28% in series [2].
As for `COC(=O)C(C)=CCCC(C)=CCCC1(C)CCc2cc(O)cc(C)c2O1` (stereo not shown) [Compound 5], the pEC50 in series [1] (setting [8]) is 6.24. The “hPPARγ Efficacy (%)” value in series [1] amounted to 35%. Moreover, the “hPPARα Efficacy (%)” value in series [2] is listed as 27%.
On to `COC(=O)COC(=O)/C(C)=C/CC/C(C)=C/CCC1(C)CCc2cc(OC(=O)c3ccccc3)cc(C)c2O1` (stereo not shown) [Compound 6], for which the Emax in series [1] is 0%; in series [2], 14%.
Regarding `COC(=O)C(OC(=O)/C(C)=C/CC/C(C)=C/CCC1(C)CCc2cc(OC)cc(C)c2O1)C(=O)OC` (stereo not shown) [Compound 7], the Emax was 37% in series [1] and 76% in series [2].
Take `COC(=O)COC(=O)/C(C)=C/CC/C(C)=C/CCC1(C)CCc2cc(OC)cc(C)c2O1` (stereo not shown) [Compound 8]: the apoptosis and survival result in series [3] is given as “some significant effects”. The reduced cell survival in series [3] is on record as 61,3%. Further, the “toxicity (MTT)” value in series [4] and in series [6] was “showed toxicity” in each case. Also, the “effect on cell survival” value in series [5] turned out to be 5.3%. Besides, the Emax in series [1] stood at 24%; in series [2] it was 39%. The pEC50 in series [1] (setting [8]) is 7.92.
As for `CCOC(=O)/C(=C/CC/C(C)=C/CCC1(C)CCc2cc(OCc3ccccc3)ccc2O1)OCC` (stereo not shown) [Compound 10], the Emax in series [1] came out at 183%; in series [2], 60%. In series [1] (setting [8]), the pEC50 is 5.70.
In the case of `CCO/C(=C\CC/C(C)=C/CCC1(C)CCc2cc(OCc3ccccc3)ccc2O1)C(=O)O` (stereo not shown) [Compound 11], the figures for the Emax in series [1] and in series [2] were 62% and 96%, respectively. The pEC50 in series [1] (setting [8]) was 6.52; in series [2] it was 5.82.
On to `CCOC(=O)/C(=C/CC/C(C)=C/CCC1(C)CCc2cc(OCc3ccc(F)cc3)ccc2O1)OCC` (stereo not shown) [Compound 12], for which the values for the Emax in series [1] and in series [2] were 183% and 113%, respectively. The pEC50 in series [1] (setting [8]) was 5.70.
Turning to `CCOC(=O)C(=CCCC1(C)CCc2cc(OCc3ccccc3)ccc2O1)OCC(F)(F)F` (stereo not shown) [Compound 13], in series [1], the pEC50 is 6.40 and the “hPPARγ Efficacy (%)” value is 39%. Further, in series [2], the “hPPARα Efficacy (%)” value is 166%.
Consider `COc1cc(C)c2c(c1)CCC(C)(CC/C=C(\C)CC/C=C(\C)C(=O)O)O2` (stereo not shown) [Polycerasoidin, 2, polycerasoidin], for which the apoptosis and survival entry in series [3] was “some significant effects”. Moreover, in series [3], the reduced cell survival is on record as 38,9%. Also, the “toxicity (MTT)” value in series [4] and in series [6] was “showed toxicity” in each case. The Emax in series [1] was 55%; in series [2] it was 82%. Moreover, the pEC50 in series [1] (setting [8]) and in series [2] was 6.00 each time.
In the case of `CN(CCOc1ccc(CC2SC(=O)NC2=O)cc1)c1ccccn1` (stereo not shown) [Rosiglitazone, rosiglitazone, reference compound], in series [3], the apoptosis and survival entry is reported as “some significant effects”; the reduced cell survival is 79,2%. Also, the “effect on cell survival” value in series [5] was 8.5%.
As for `Cc1cccc(Nc2cc(Cl)nc(SCC(=O)O)n2)c1C` [WY-14643, reference compound], the “cytotoxicity (MTT)” value in series [6] turned out to be 9%. For the same compound, the “triglyceride levels in plasma (in words)” value in series [7] is on record as “decrease of triglyceride levels in plasma, although not in a significant manner”. In addition, the “increase of total cholesterol levels with respect to the control group” value in series [7] (plasma, 30 mg/Kg/d) came to 64%. Further, the “HDL-c with respect to the control group” value in series [7] (plasma, compound 9 10 and 30 mg/Kg/d, WY-14643 30 mg/Kg/d) is recorded as “significantly increased”.
